Columns and labels:
S. gordonii/A. viscosus = assay: Growth inhibition (OD610), co-culture; type: cell-based, S. gordonii and A. viscosus
Method: (§1) Further characterization was performed on planktonic oral microbes; Streptococcus sobrinus (Cariongenic—strain-SL1[CCM 6070, CNCTC 9/89] (ATCC cat. #33478), Streptococcus gordonii (Arginolytic—strain V288 (ATCC cat. #35105), Actinomyces viscosus) as well late colonizer (Gram −), pathogenic Aggregatibacter actinomycetemcomitans. All microbes were grown in their respective culture media: Streptococcus sobrinus and Streptococcus gordonii in BHI broth (BD, cat #237500), Aggregatibacter actinomycetemcomitans in BHI broth supplemented with 0.5% Yeast Extract (BD, cat #210941) and Actinomyces viscosus in Trypticase Soy Broth (BD, cat #211768) supplemented with 0.5% Yeast Extract (BD, cat #210941). Bacteria were cultured overnight in 37° C., 5% CO2 in approximately 20 ml of the appropriate culture broth. The following day, the OD610 was determined and solutions were diluted to 0.2 for the assay.
(§2) Test samples (Naringin, Naringin:Zinc complex and Naringin+Zinc Acetate (combination)) were prepared as a 100 mM stock solution followed by 2 fold serial dilution in 100% DMSO. Triclosan (positive control) was prepared as a 10% stock in 100% EtOH and 3 fold serial dilutions were done in 100% EtOH. […]
(§3) After approximately 12-13 hours of treatment, the plate was read at 610 nm using an Envision plate reader (PerkinElmer, Waltham, Mass.). The % inhibition relative to control was determined as follows: […]

Streptococcus sobrinus = assay: Growth inhibition (OD610), single culture; type: cell-based
Method: (§4) Single species of Streptococcus gordonii (S. gordonii, S.g) strain V288 (ATCC #35105), Streptococcus sobrinus (S. sobrinus, S.$) strain SL1[CCM 6070, CNCTC 9/89] (ATCC #33478), or Aggregatibacter actinomycetemcomitans were analyzed. Also, a mixed culture containing Actinomyces viscosus (A. viscosus, A.v) strain (ATCC, #43146), Lactobacillus casei (L. casei, L.c) strain (ATCC #334), Streptococcus oralis (S. oralis, S. o) strain (ATCC #35037), Fusobacterium nucleatum (F. nucleatum, F. n) strain (ATCC #10953), and Veilonella parvula (V. parvula, V. p) strain (ATCC #17745) was also analyzed for growth inhibition/toxicity activity. Bacteria were cultured overnight in approximately 20 ml of BHI broth (BD, cat #237500) or maintained in a specialized complex modified BHI II medium in a continuous culture chemostat at 37° C. respectively. The following day, the OD610 were determined and solutions diluted to an OD610 of 0.2 or 0.1 respectively for the assay.
(§5) Triclosan (positive control) was prepared as a 10% stock in 100% EtOH and 3 fold serial dilutions were performed in 100% EtOH. An appropriate amount of the diluted samples was then transferred into a 96 well clear plate such that the resulting final concentration of the test samples ranged from either a 2 mM or 4 mM (highest concentration) to 0.0078 mM or 0.0156 mM (lowest concentration respectively) in 2% DMSO in 100 μl media per well. Triclosan (TCN) ranged from 0.01% to 1.67e-6% in 1% EtOH. For Zinc acetate, in order to mimic the 2:1 molar ratio (ligand:Zinc) in the Naringin:Zinc complex, the final concentration ranged from 0.7 mM to 0.0027 mM for samples with 2 mM as the highest concentration and 1.33 mM to […] for samples with 4 mM as the highest concentration in 2% DMSO. Next, 100 μl of bacterial culture at OD610 0.2 were introduced to the wells with the test samples. The wells were thoroughly mixed and incubated at 37° C. overnight. The plates were read using an Envision plate reader (PerkinElmer, Waltham, Mass.) at 610 nm.
(§6) The IC50 for the complex, Product 5, was determined for Streptococcus gordonii (S. gordonii), Streptococcus sobrinus (S. sobrinus), Aggregatibacter actinomycetemcomitans (A. actinomycetemcomitans), and also for the mixed bacterial culture. […] Triclosan (TCN) was included as a positive control for bacterial inhibition.
as §1
(§7) Triclosan (positive control) was prepared as a 10% stock in 100% EtOH and 3 fold serial dilutions were done in 100% EtOH. […] For Naringin+Zinc combination, while the highest total overall concentration was 2 mM, the exact concentration was Naringin (1.3 mM) and Zinc Acetate (0.7 mM) due to the compositions 2:1 molar ratio. For Zinc Acetate, in order to mimic the 2:1 ratio (ligand:Zinc) composition as in the complex, the final concentration ranged from 0.7 mM to 0.0027 mM in 2% DMSO.
(§8) A 100 μl aliquot of bacterial culture at OD610 0.2 were introduced to the wells with the test samples. The wells were thoroughly mixed and plates incubated overnight in a 37° C. incubator with or without 5% CO2 depending upon the bacterial species.

S. gordonii/S. sobrinus = assay: Growth inhibition (OD610), co-culture; type: cell-based, S. gordonii and S. sobrinus
Method: as §1, §2, §3

S. sobrinus/A. viscosus = assay: Growth inhibition (OD610), co-culture; type: cell-based, S. sobrinus and A. viscosus
Method: as §1, §2, §3

Actinomyces viscosus = assay: Growth inhibition (OD610), single culture; type: cell-based; conditions: A. viscosus
Method: as §1, §2, §3

[1] = system: planktonic oral bacterial species (S. sobrinus, S. gordonii, A. actinomycetemcomitans, A. viscosus, mixed cultures); assay: Growth inhibition, summary statements over the single, co- and mixed cultures tested; type: cell-based, oral bacteria; conditions: for inhibition of single species, co-cultures and mixed cultures (in words): concentrations of Tables 7-12
Method: as §4, §5, §6, §1, §7, §8

[2] = system: A. actinomycetemcomitans/A. viscosus; assay: Growth inhibition (OD610), co-culture; type: cell-based, A. actinomycetemcomitans and A. viscosus
Method: as §1, §2, §3

[3] = system: A. actinomycetemcomitans/S. sobrinus; assay: Growth inhibition (OD610), co-culture; type: cell-based, A. actinomycetemcomitans and S. sobrinus
[4] = 0.5 mM (combination 0.5 mM total)

Compound | inhibition at 500 µM (S. gordonii/A. viscosus; [4]) [%] | inhibition at 500 µM (Streptococcus sobrinus; Streptococcus sobrinus, S. sobrinus, 0.5 mM (combination 0.325 mM + 0.175 mM, 0.5 mM total)) [%] | inhibition at 500 µM (S. gordonii/S. sobrinus; [4]) [%] | inhibition at 500 µM (S. sobrinus/A. viscosus; [4]) [%] | inhibition at 500 µM (Actinomyces viscosus; Actinomyces viscosus, 0.5 mM (combination 0.325 mM + 0.175 mM, 0.5 mM total)) [%] | antimicrobial effect on bacterial species tested (in words) ([1]; all concentrations tested, cultured alone or as co-cultures) | inhibition of single species, co-cultures and mixed cultures (in words) [1] | inhibition at 500 µM [2, 4] [%] | inhibition at 500 µM [3, 4] [%] | % Inhibition (S. gordonii/A. viscosus; 0.175 mM) [%] | % Inhibition (Streptococcus sobrinus; S. sobrinus, 0.175 mM) [%] | IC50 (Streptococcus sobrinus; Streptococcus sobrinus, overnight at 37° C., read-out: IC50) [µM] | % Inhibition (S. gordonii/S. sobrinus; 0.175 mM) [%] | % Inhibition (S. sobrinus/A. viscosus; 0.175 mM) [%] | % Inhibition (Actinomyces viscosus; 0.175 mM) [%] | IC50 range over cultures tested, corresponding ppm ([1]; S. sobrinus, S. gordonii, A. actinomycetemcomitans and mixed chemostat cultures) | IC50 ([1]; S. sobrinus, S. gordonii, A. actinomycetemcomitans and mixed chemostat cultures, read-out: concentration that inhibited 50% of the bacterial growth (IC50), range over cultures tested) [µM] | % Inhibition ([2]; 0.175 mM) [%] | % Inhibition ([3]; 0.175 mM) [%]
C[C@@H]1O[C@@H](O[C@H]2[C@H](Oc3cc(O)c4c(c3)O[C@H](c3ccc(O)cc3)CC4=O)O[C@H](CO)[C@@H](O)[C@@H]2O)[C@H](O)[C@H](O)[C@H]1O [Naringin] | -2.39 ± 5.68 | -2.64 ± 2.54 | -6.84 ± 1.19 | -3.79 ± 7.15 | -3.5 ± 4.1 | did not show detectable antimicrobial effect | little to no detectable inhibition | -0.03 ± 2.02 | 0.33 ± 3.48 |  |  |  |  |  |  |  |  |  | 
CC(=O)[O-].CC(=O)[O-].[Zn+2] [Zinc Acetate alone, Zinc (II) Acetate] |  |  |  |  |  |  | little to no detectable inhibition |  |  | −0.74 ± 6.34 | −1.05 ± 3.10 | 290 ± 40 | 1.55 ± 0.24 | 2.46 ± 6.58 | −1.84 ± 5.86 | 45.9-317.5 ppm | 250 to 1730 | 4.13 ± 6.89 | 6.58 ± 5.36
